Where no end group is shown, it is not given here.
Legend:
S. aureus (KCTC 1621) = format: cell-based, Staphylococcus aureus; details: broth microdilution in MHB, 37 °C, 24 h, 100% inhibition of growth
Protocol: (§1) The antibacterial efficacy of the synthesized peptides was evaluated by determining the minimal inhibitory concentrations (MICs) against six standard bacterial strains and five drug-resistant bacterial strains using the Clinical and Laboratory Standards Institute (CLSI) microdilution method. Melittin served as the positive control.
(§2) The minimal inhibitory concentrations (MICs) of the peptides against bacterial strains were determined using a modified broth-microdilution method in accordance with the National Committee for Clinical Laboratory Standards (NCCLS) guidelines. Overnight cultures were diluted in cation-adjusted Mueller–Hinton Broth (MHB) to achieve an inoculum density of 2 × 10^6 CFU/mL. A two-fold serial dilution of the peptide solution (100 μL) was introduced into microtiter plates, followed by the addition of 100 μL of bacterial suspension. The plates were then incubated at 37 °C for 24 h to determine the MICs. Wells containing only culture media served as negative controls, while those with added bacteria functioned as positive controls. The MIC, expressed in μM, was defined as the lowest peptide concentration that prevented visible bacterial growth. This protocol was also employed to determine MICs in the presence of physiological salts (150 mM of NaCl, 4.5 mM of KCl, 6 μM of NH4Cl, 1 mM of MgCl2, 2.5 mM of CaCl2, and 4 μM of FeCl3) and 20% human serum to assess the peptides’ efficacy under conditions more closely resembling physiological environments. All experiments were conducted in triplicate and repeated three times independently to ensure reproducibility and statistical significance of the results.

[1] = tested on: S. epidermidis (KCTC 1917); format: cell-based, Staphylococcus epidermidis; details: broth microdilution in MHB, 37 °C, 24 h, 100% inhibition of growth
Protocol: as §1, §2

B. subtilis (KCTC 3068) = format: cell-based, Bacillus subtilis; details: broth microdilution in MHB, 37 °C, 24 h, 100% inhibition of growth
Protocol: as §1, §2

MRSA (CCARM 3089) = format: cell-based, methicillin-resistant Staphylococcus aureus; details: broth microdilution in MHB, 37 °C, 24 h, 100% inhibition of growth
Protocol: as §1, §2

MRSA (CCARM 3090) = format: cell-based, methicillin-resistant Staphylococcus aureus; details: broth microdilution in MHB, 37 °C, 24 h, 100% inhibition of growth
Protocol: as §1, §2

VREF (ATCC 51559) = format: cell-based, vancomycin-resistant Enterococcus faecium; details: broth microdilution in MHB, 37 °C, 24 h, 100% inhibition of growth
Protocol: as §1, §2

E. coli (KCTC 1682) = format: cell-based, Escherichia coli; details: broth microdilution in MHB, 37 °C, 24 h, 100% inhibition of growth
Protocol: as §1, §2

[2] = tested on: P. aeruginosa (KCTC 1637); format: cell-based, Pseudomonas aeruginosa; details: broth microdilution in MHB, 37 °C, 24 h, 100% inhibition of growth
Protocol: as §1, §2

[3] = tested on: S. typhimurium (KCTC 1926); format: cell-based, Salmonella typhimurium; details: broth microdilution in MHB, 37 °C, 24 h, 100% inhibition of growth
Protocol: as §1, §2

MDRPA (CCARM 2095) = format: cell-based, multidrug-resistant Pseudomonas aeruginosa; details: broth microdilution in MHB, 37 °C, 24 h, 100% inhibition of growth
Protocol: as §1, §2

MDRPA (CCARM 2109) = format: cell-based, multidrug-resistant Pseudomonas aeruginosa; details: broth microdilution in MHB, 37 °C, 24 h, 100% inhibition of growth
Protocol: as §1, §2

[4] = tested on: sheep red blood cells (sRBCs); test: Hemolytic activity assay; format: cell-based; details: 4% (v/v) sheep red blood cells in PBS, 1 h, 37 °C; 1 to 256 μM tested
Protocol: To assess toxicity in mammalian cells, we evaluated the hemolytic activity of the peptides on sheep red blood cells (sRBCs). […] The therapeutic index (TI), a measure commonly employed to evaluate the cell selectivity of antibacterial agents, was calculated as the ratio of the concentration causing 10% hemolysis of sRBCs (HC10) to the GM [19, 20, 21, 22].
The hemolytic activity of the peptides was tested through hemolysis assay of sheep red blood cells (sRBCs). The sRBCs were diluted in PBS to achieve a 4% (v/v) concentration. Subsequently, 100 μL of peptide solutions, ranging from 1 to 256 μM, was dispensed into a 96-well plate containing an equal volume of the erythrocyte suspension. After incubating for 1 h at 37 °C and centrifuging at 1000× g for 10 min, 100 μL of the supernatant was transferred to a new 96-well plate. Hemoglobin release was quantified using a microplate reader at a wavelength of […]. The percentage of hemolysis was calculated using percentage hemolysis = 100 × [[…]], where A represents the absorbance of the peptide-treated sample at 540 nm, A0 corresponds to the absorbance value representing 0% hemolysis in PBS, and At corresponds to the absorbance value representing 100% hemolysis in 0.1% Triton X-100.

[5] = tested on: MDRPA (CCARM 2095) biofilm formation; format: cell-based, multidrug-resistant Pseudomonas aeruginosa; details: overnight 37 °C, crystal violet staining; for MBIC50: 50% inhibition; for MBIC90: 90% inhibition
Description: Bacterial biofilms, comprising communities of bacterial cells encased in a matrix of polysaccharides and nucleic acids, present a significant challenge for conventional antibiotics due to the protective nature of this matrix. Biofilms can enhance bacterial resistance to antibiotics by up to 1000-fold compared to planktonic bacteria. To address this issue, there is an urgent need to discover and develop novel alternative therapeutic agents capable of effectively combating biofilm-forming bacteria. […] Our research specifically focused on evaluating the impact of BP100 and its analogs on biofilm formation and eradication using multidrug-resistant Pseudomonas aeruginosa (MDRPA), a common pathogen responsible for biofilm-mediated nosocomial infections. The adhered biomass was quantified using crystal violet staining, and the minimum biofilm inhibitory concentration (MBIC90) was determined as the lowest concentration required to inhibit 90% of biofilm growth relative to the positive control. […] Human cathelicidin LL-37 is well-documented for its potent antibiofilm properties.
The inhibitory activity of the peptides on biofilm formation was evaluated against multidrug-resistant Pseudomonas aeruginosa (MDRPA) (CCARM 2095) using a biofilm inhibition assay to determine the minimal biofilm inhibitory concentration (MBIC). Peptide solutions were serially diluted in sterile water and aliquoted (100 μL) into a 96-well Costar polypropylene plate (Corning Inc., Corning, NY, USA). An equal volume of MDRPA suspension in Mueller–Hinton Broth (MHB), adjusted to 1 × 10^6 CFU/mL, was added to each well, resulting in a final inoculum density of 5 × 10^5 CFU/mL. Following overnight incubation at 37 °C, bacterial growth was quantified by measuring the optical density (OD) at 595 nm. Planktonic cells were then discarded, and the attached biofilms were washed thrice with distilled water. Residual biofilms were stained with 0.1% crystal violet for five minutes, washed to remove non-adherent dye, and subsequently destained using 95% ethanol. The OD at 595 nm was measured again to assess the biofilm mass. Control wells contained untreated bacteria. The MBIC was defined as the lowest peptide concentration that inhibited any residual crystal violet staining or biofilm formation. All assays were conducted in triplicate to ensure reproducibility. This method allows for the quantitative assessment of the peptides’ ability to prevent biofilm formation, a critical virulence factor in many bacterial infections, particularly those caused by multidrug-resistant strains.

| Compound | Minimal Inhibitory Concentration (MIC) (S. aureus (KCTC 1621)) | Minimal Inhibitory Concentration (MIC) [1] | Minimal Inhibitory Concentration (MIC) (B. subtilis (KCTC 3068)) | Minimal Inhibitory Concentration (MIC) (MRSA (CCARM 3089)) | Minimal Inhibitory Concentration (MIC) (MRSA (CCARM 3090)) | Minimal Inhibitory Concentration (MIC) (VREF (ATCC 51559)) | Minimal Inhibitory Concentration (MIC) (E. coli (KCTC 1682)) | Minimal Inhibitory Concentration (MIC) [2] | Minimal Inhibitory Concentration (MIC) [3] | Minimal Inhibitory Concentration (MIC) (MDRPA (CCARM 2095)) | Minimal Inhibitory Concentration (MIC) (MDRPA (CCARM 2109)) | HC10 (peptide concentration that caused 10% hemolysis) [4] | MBIC50 [5] | MBIC90 [5] |
| --- | --- | --- | --- | --- | --- | --- | --- | --- | --- | --- | --- | --- | --- | --- |
| CC[C@H](C)[C@H](NC(=O)[C@H](CCCCN)NC(=O)[C@H](CCCCN)NC(=O)[C@H](Cc1c[nH]c2ccccc12)NC(=O)[C@H](CC(C)C)NC(=O)[C@H](CCCCN)NC(=O)[C@@H](N)CCCCN)C(=O)N[C@@H](CC(C)C)C(=O)N[C@@H](CCCCN)C(=O)N[C@@H](Cc1ccc(O)cc1)C(=O)N[C@@H](CC(C)C)C(N)=O [BP1] | 8 µM | 8 µM | 8 µM | 32 µM | 64 µM | 64 µM | 8 µM | 16 µM | 8 µM | 16 µM | 16 µM | >256 µM | 4 to 8 µM | 8 µM |
| CC(C)C[C@H](NC(=O)[C@H](Cc1ccc(O)cc1)NC(=O)[C@H](CCCCN)NC(=O)[C@H](CC(C)C)NC(=O)[C@H](Cc1c[nH]c2ccccc12)NC(=O)[C@H](CCCCN)NC(=O)[C@H](CCCCN)NC(=O)[C@H](Cc1ccccc1)NC(=O)[C@H](CC(C)C)NC(=O)[C@H](CCCCN)NC(=O)[C@@H](N)CCCCN)C(N)=O [BP2] | 4 µM | 2 µM | 8 µM | 16 µM | 16 µM | 128 µM | 2 µM | 8 µM | 8 µM | 8 µM | 4 µM | >256 µM | 8 to 16 µM | 16 µM |
| CC[C@H](C)[C@H](NC(=O)[C@H](CCCCN)NC(=O)[C@H](CCCCN)NC(=O)[C@H](Cc1ccccc1)NC(=O)[C@H](CC(C)C)NC(=O)[C@H](CCCCN)NC(=O)[C@@H](N)CCCCN)C(=O)N[C@@H](Cc1c[nH]c2ccccc12)C(=O)N[C@@H](CCCCN)C(=O)N[C@@H](Cc1ccc(O)cc1)C(=O)N[C@@H](CC(C)C)C(N)=O [BP3] | 8 µM | 8 µM | 16 µM | 64 µM | 64 µM | 64 µM | 8 µM | 32 µM | 4 µM | 16 µM | 16 µM | >256 µM | 8 to 16 µM | 16 µM |
| CC[C@H](C)[C@H](NC(=O)[C@H](CCCCN)NC(=O)[C@H](CCCCN)NC(=O)[C@H](Cc1ccccc1)NC(=O)[C@H](CC(C)C)NC(=O)[C@H](CCCCN)NC(=O)[C@@H](N)CCCCN)C(=O)N[C@@H](CC(C)C)C(=O)N[C@@H](CCCCN)C(=O)N[C@@H](Cc1c[nH]c2ccccc12)C(=O)N[C@@H](CC(C)C)C(N)=O [BP4] | 4 µM | 8 µM | 4 µM | 64 µM | 64 µM | 16 µM | 4 µM | 16 µM | 2 µM | 8 µM | 16 µM | >256 µM | 4 to 8 µM | 8 µM |
| CC[C@H](C)[C@H](NC(=O)[C@H](CCCCN)NC(=O)[C@H](CCCCN)NC(=O)[C@H](Cc1ccccc1)NC(=O)[C@H](CC(C)C)NC(=O)[C@H](CCCCN)NC(=O)[C@@H](N)CCCCN)C(=O)N[C@@H](CC(C)C)C(=O)N[C@@H](CCCCN)C(=O)N[C@@H](Cc1ccc(O)cc1)C(=O)N[C@@H](CC(C)C)C(N)=O [BP100] | 4 µM | 4 µM | 8 µM | 32 µM | 64 µM | 64 µM | 4 µM | 16 µM | 4 µM | 32 µM | 16 µM | >256 µM | 4 to 8 µM | 8 µM |
| KKLFKKILKWW-NH2 [BP12] | 4 µM | 4 µM | 8 µM | 64 µM | 64 µM | 128 µM | 8 µM | 16 µM | 4 µM | 16 µM | 16 µM | >256 µM | 4 to 8 µM | 8 µM |

From article PMC11596392, “Enhanced Antibacterial, Anti-Inflammatory, and Antibiofilm Activities of Tryptophan-Substituted Peptides Derived from Cecropin A-Melittin Hybrid Peptide BP100” (Molecules, 2024)
